ChEMBL document CHEMBL1201862, “PubChem BioAssay data set” (2004)
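These data come from cells grown in 96-well plates and exposed to compound for 48 hours at five concentrations. At the GI50, growth is halved.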 Calls of active or inactive are those of the source. No stated cut-off is given here; in the data, active = GI50 up to about 1.1 µM and inactive = higher.

Legend:
Assay in all cases: growth of human tumour cells (NCI), 48 h
SK-OV-3 = system: SK-OV-3
COLO 205 = system: COLO 205
SN12C = system: SN12C
OVCAR-4 = system: OVCAR-4
NCI-H226 = system: NCI-H226
NCI-H460 = system: NCI-H460
CCRF-CEM = system: CCRF-CEM
MOLT-4 = system: MOLT-4
SF-295 = system: SF-295
NCI-H522 = system: NCI-H522
NCI-H23 = system: NCI-H23
HOP-92 = system: HOP-92
SW-620 = system: SW-620
786-0 = system: 786-0
ACHN = system: ACHN
HOP-62 = system: HOP-62
TK-10 = system: TK-10
RPMI-8226 = system: RPMI-8226

Measured: GI50

O=P(NCCCO)(OCc1ccccc1)N(CCCl)CCCl (centres undefined)
inactive: SK-OV-3 > 100 µM | COLO 205 > 100 µM | SN12C > 100 µM | OVCAR-4 > 100 µM | NCI-H226 > 100 µM | NCI-H460 > 100 µM | CCRF-CEM > 100 µM | MOLT-4 > 100 µM | SF-295 > 100 µM | NCI-H522 > 100 µM | NCI-H23 > 100 µM | HOP-92 > 100 µM | SW-620 > 100 µM

COC(=O)C(=Cc1cc(OC)c(OC)c(OC)c1-c1cc2c(cc1C(C)=O)OCO2)C(=O)OC
inactive: 786-0 33.1 µM | SK-OV-3 71.9 µM | COLO 205 35.3 µM | ACHN 46.8 µM | SN12C 27.7 µM | HOP-62 36.8 µM | NCI-H226 50.9 µM | NCI-H460 62.8 µM | CCRF-CEM 30.6 µM | MOLT-4 52.2 µM | TK-10 77.8 µM | SF-295 48.5 µM | NCI-H522 28.5 µM | NCI-H23 34.7 µM | RPMI-8226 35.5 µM | HOP-92 44 µM | SW-620 46.1 µM

O=C1[C@H]2ON(c3ccccc3)C(c3ccc([N+](=O)[O-])cc3)[C@H]2C(=O)N1c1ccc(Cc2ccc(N3C(=O)[C@@H]4ON(c5ccccc5)C(c5ccc([N+](=O)[O-])cc5)[C@@H]4C3=O)cc2)cc1 (some centres undefined)
inactive: 786-0 > 100 µM | SK-OV-3 > 100 µM | COLO 205 58.7 µM | ACHN > 100 µM | SN12C > 100 µM | OVCAR-4 > 100 µM | HOP-62 > 100 µM | NCI-H226 > 100 µM | NCI-H460 > 100 µM | CCRF-CEM > 100 µM | MOLT-4 > 100 µM | TK-10 > 100 µM | SF-295 > 100 µM | NCI-H522 > 100 µM | NCI-H23 > 100 µM | RPMI-8226 > 100 µM | HOP-92 52.4 µM | SW-620 > 100 µM

O=C(C(O)c1cn(Cc2ccccc2)c2ccccc12)N1CCCCC1 (centres undefined)
inactive: 786-0 > 100 µM | SK-OV-3 72.8 µM | COLO 205 > 100 µM | ACHN 53.5 µM | SN12C 82.6 µM | HOP-62 > 100 µM | NCI-H226 34.4 µM | CCRF-CEM 67.1 µM | MOLT-4 39.9 µM | TK-10 > 10 µM | SF-295 76 µM | NCI-H522 44.4 µM | NCI-H23 > 10 µM | RPMI-8226 > 100 µM | HOP-92 > 100 µM | SW-620 > 100 µM

NC(=O)N/N=C/C(/C=N/NC(N)=O)[N+](=O)[O-]
inactive: 786-0 > 100 µM | SK-OV-3 > 100 µM | COLO 205 > 100 µM | ACHN > 100 µM | SN12C > 100 µM | OVCAR-4 > 100 µM | HOP-62 > 100 µM | NCI-H226 > 100 µM | CCRF-CEM > 100 µM | TK-10 > 100 µM | SF-295 > 100 µM | NCI-H522 > 100 µM | NCI-H23 > 100 µM | RPMI-8226 > 100 µM | HOP-92 > 100 µM | SW-620 > 100 µM

CC1(c2ccc[n+](Cc3ccccc3)c2)OCCO1
inactive: 786-0 > 100 µM | SK-OV-3 > 100 µM | COLO 205 > 100 µM | ACHN > 100 µM | SN12C > 100 µM | OVCAR-4 > 100 µM | HOP-62 > 100 µM | NCI-H226 > 100 µM | NCI-H460 > 100 µM | CCRF-CEM > 100 µM | MOLT-4 > 100 µM | TK-10 > 100 µM | SF-295 > 100 µM | NCI-H522 > 100 µM | NCI-H23 > 100 µM | RPMI-8226 > 100 µM | SW-620 > 100 µM

CCOC(=O)Oc1ccc2[nH]c3c(C)cc(N)c(C)c3c2c1
inactive: 786-0 > 100 µM | COLO 205 > 100 µM | ACHN > 100 µM | SN12C > 100 µM | OVCAR-4 > 100 µM | HOP-62 > 100 µM | NCI-H226 > 100 µM | NCI-H460 > 100 µM | CCRF-CEM > 100 µM | MOLT-4 78.9 µM | TK-10 > 100 µM | SF-295 > 100 µM | NCI-H522 > 100 µM | NCI-H23 > 100 µM | RPMI-8226 72.3 µM | SW-620 > 100 µM

CCCN(CCCC(NC(C)=O)C(=O)NCc1ccccc1)C(=O)NCCCl (centres undefined)
inactive: 786-0 > 100 µM | COLO 205 > 100 µM | ACHN > 100 µM | SN12C > 100 µM | OVCAR-4 > 100 µM | HOP-62 > 100 µM | NCI-H226 > 100 µM | NCI-H460 > 100 µM | CCRF-CEM > 100 µM | MOLT-4 > 100 µM | TK-10 > 100 µM | SF-295 > 100 µM | NCI-H522 > 100 µM | NCI-H23 > 100 µM | RPMI-8226 > 100 µM | HOP-92 > 100 µM | SW-620 > 100 µM

COC(=O)C1=CO[C@@H](OC2CC(CO)C(O)C(O)C2O)[C@@H]2[C@@H](C)[C@@H](OC(=O)/C=C/c3ccccc3)[C@@H](O)[C@H]12.COC(=O)C1=CO[C@@H](OC2CC(CO)C(O)C(O)C2O)[C@@H]2[C@@H](C)[C@@H](OC(=O)c3ccccc3)[C@@H](O)[C@H]12 (some centres undefined)
inactive: 786-0 > 100 µM | SK-OV-3 > 100 µM | COLO 205 > 100 µM | ACHN > 100 µM | SN12C > 100 µM | OVCAR-4 > 100 µM | HOP-62 > 100 µM | NCI-H226 > 100 µM | CCRF-CEM > 100 µM | MOLT-4 > 100 µM | TK-10 > 100 µM | SF-295 > 100 µM | NCI-H522 > 100 µM | NCI-H23 > 100 µM | RPMI-8226 > 100 µM | HOP-92 > 100 µM | SW-620 > 100 µM

O=C(Cc1cc[n+]([O-])cc1)C(=O)Nc1cc(Cl)c(Cl)cc1Cl
inactive: 786-0 > 100 µM | SK-OV-3 > 100 µM | COLO 205 > 100 µM | ACHN > 100 µM | OVCAR-4 > 100 µM | HOP-62 > 100 µM | NCI-H460 > 100 µM | CCRF-CEM > 100 µM | MOLT-4 > 100 µM | TK-10 > 100 µM | SF-295 > 100 µM | NCI-H522 > 100 µM | NCI-H23 > 100 µM | RPMI-8226 > 100 µM | HOP-92 38.3 µM | SW-620 > 100 µM

CCCNC1=C(C(=O)OCC)C(=O)CO1
inactive: 786-0 > 100 µM | ACHN > 100 µM | SN12C > 100 µM | OVCAR-4 > 100 µM | NCI-H226 > 100 µM | NCI-H460 > 100 µM | CCRF-CEM > 100 µM | MOLT-4 > 100 µM | TK-10 > 100 µM | SF-295 > 100 µM | NCI-H23 > 100 µM | RPMI-8226 > 100 µM | HOP-92 > 100 µM | SW-620 > 100 µM

CCOC(=O)c1ccn2c(c1)c(C#N)c1nc3ccccc3nc12
inactive: 786-0 > 100 µM | SK-OV-3 55.1 µM | COLO 205 48.2 µM | ACHN 55.5 µM | SN12C 83.8 µM | OVCAR-4 91 µM | HOP-62 > 100 µM | NCI-H460 28.6 µM | CCRF-CEM 18.5 µM | MOLT-4 18.1 µM | TK-10 75.9 µM | NCI-H522 45.3 µM | NCI-H23 37.2 µM | RPMI-8226 43.6 µM | SW-620 50 µM

O=C1NC(=S)NC(=O)C1=CC1CC1
inactive: 786-0 > 100 µM | SK-OV-3 > 100 µM | COLO 205 > 100 µM | ACHN > 100 µM | SN12C > 100 µM | OVCAR-4 > 100 µM | HOP-62 > 100 µM | NCI-H226 > 100 µM | NCI-H460 > 100 µM | CCRF-CEM > 100 µM | MOLT-4 > 100 µM | TK-10 > 100 µM | SF-295 > 100 µM | NCI-H522 > 100 µM | NCI-H23 > 100 µM | RPMI-8226 > 100 µM | HOP-92 > 100 µM | SW-620 > 100 µM

CCOC(=O)C1=C(OC(OCC)C(C)[Se]c2ccccc2)CCC1 (centres undefined)
inactive: 786-0 12.5 µM | SK-OV-3 94 µM | COLO 205 25.1 µM | ACHN 26.9 µM | SN12C 14.6 µM | OVCAR-4 18 µM | HOP-62 64.6 µM | NCI-H226 16.6 µM | NCI-H460 25.4 µM | CCRF-CEM 16.5 µM | MOLT-4 15.9 µM | TK-10 > 100 µM | SF-295 19.8 µM | NCI-H522 13.1 µM | NCI-H23 12.4 µM | RPMI-8226 13 µM | HOP-92 24.5 µM

Cc1ccc(C(=O)C(C)N)cc1C (centres undefined)
inactive: 786-0 > 100 µM | SK-OV-3 > 100 µM | COLO 205 > 100 µM | ACHN > 100 µM | SN12C > 100 µM | OVCAR-4 > 100 µM | HOP-62 > 100 µM | NCI-H226 > 100 µM | NCI-H460 > 100 µM | CCRF-CEM > 100 µM | MOLT-4 > 100 µM | TK-10 > 100 µM | SF-295 > 100 µM | NCI-H522 > 100 µM | NCI-H23 > 100 µM | RPMI-8226 > 100 µM | SW-620 > 100 µM

COCC1N=C(c2cc(OC)c(OC)c(OC)c2-c2cc3c(cc2[C@H](C)O)OCO3)O[C@H]1c1ccccc1 (some centres undefined)
inactive: 786-0 > 100 µM | SK-OV-3 > 100 µM | COLO 205 30.1 µM | ACHN 40.7 µM | SN12C 46.5 µM | OVCAR-4 33.5 µM | NCI-H226 > 100 µM | CCRF-CEM > 10 µM | MOLT-4 41.6 µM | TK-10 > 100 µM | SF-295 48.2 µM | NCI-H23 87.7 µM | RPMI-8226 31 µM | HOP-92 27.2 µM | SW-620 > 100 µM
